Laboratory results from PubChem BioAssay AID330 (DTP/NCI, 2004).
“And” between values parts separate entries of the source, which are not always exact repeats. Equal entries are not always repeated. Inconclusive results and toxic doses are left out. The calls were made as follows: active = survival T/C of 150% or more; inactive = T/C below 125% in these data.

System: P388 leukemia ip, CD2F1 mice, survival T/C
Experiment: NCI In Vivo Anticancer Drug Screen. Data for tumor model P388 Leukemia (intraperitoneal) in CD2F1 (CDF1) mice
Conditions: endpoint: median survival time, higher = longer survival
Method in brief: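 Mice carrying the transplanted tumor received test compound or vehicle. Survival was recorded in each group, and the value is the treated-group measurement divided by that of the vehicle-treated control group.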

[1] = dose: 25.0 mg/kg/injection, schedule: Q01DX009 (ip), vehicle: saline with Tween-80
[2] = dose: 50.0 mg/kg/injection, schedule: Q01DX009 (ip), vehicle: saline with Tween-80
[3] = dose: 100.0 mg/kg/injection, schedule: Q01DX009 (ip), vehicle: saline with Tween-80
[4] = dose: 50.0 mg/kg/injection, schedule: Q01DX005 (ip), vehicle: Klucel (hydroxypropylcellulose) (HPC)
[5] = dose: 100.0 mg/kg/injection, schedule: Q01DX005 (ip), vehicle: Klucel (hydroxypropylcellulose) (HPC)
[6] = dose: 200.0 mg/kg/injection, schedule: Q01DX005 (ip), vehicle: Klucel (hydroxypropylcellulose) (HPC)
[7] = dose: 60.0 mg/kg/injection, schedule: Q01DX005 (ip), vehicle: saline with Tween-80
[8] = dose: 120.0 mg/kg/injection, schedule: Q01DX005 (ip), vehicle: saline with Tween-80
[9] = dose: 240.0 mg/kg/injection, schedule: Q01DX005 (ip), vehicle: saline with Tween-80

Measured: T/C

COc1ccc(Cc2cc3c(cc2O)OCO3)cc1
inactive: dose: 2.5 mg/kg/injection, schedule: Q01DX009 (ip), vehicle: saline with Tween-80 99 % of control | dose: 5.0 mg/kg/injection, schedule: Q01DX009 (ip), vehicle: saline with Tween-80 101 % of control | dose: 10.0 mg/kg/injection, schedule: Q01DX009 (ip), vehicle: saline with Tween-80 101 % of control | dose: 15.0 mg/kg/injection, schedule: Q01DX005 (ip), vehicle: saline with Tween-80 107 % of control | dose: 31.0 mg/kg/injection, schedule: Q01DX005 (ip), vehicle: saline with Tween-80 102 % of control | dose: 62.5 mg/kg/injection, schedule: Q01DX005 (ip), vehicle: saline with Tween-80 106 % of control | dose: 125.0 mg/kg/injection, schedule: Q01DX005 (ip), vehicle: saline with Tween-80 100 % of control | dose: 250.0 mg/kg/injection, schedule: Q01DX005 (ip), vehicle: saline with Tween-80 102 % of control

CCN1C(=O)Nc2ccc(Cl)cc2C1(O)c1ccccc1 (centres undefined)
inactive: [1] 95 % of control | [2] 102 % of control | [3] 99 % of control

C[C@]12C=CC(=O)C=C1CC[C@@H]1[C@@H]2[C@@H](O)C[C@@]2(C)[C@H]1CC[C@]2(O)C(=O)CO
inactive: [4] 106 % of control | [5] 100 % of control | [6] 91 % of control | dose: 400.0 mg/kg/injection, schedule: Q01DX005 (ip), vehicle: Klucel (hydroxypropylcellulose) (HPC) 105 % of control

O=C(O)CCCNS(=O)(=O)c1ccc(S(=O)(=O)NCCCC(=O)O)cc1
inactive: [4] 99 % of control | [5] 103 % of control | [6] 103 % of control

Cc1cc2c(=O)cc(-c3ccccc3)oc2c(C#N)c1C
inactive: dose: 60.0 mg/kg/injection, schedule: Q01DX005 (ip), vehicle: Klucel (hydroxypropylcellulose) (HPC) 99 % of control | dose: 120.0 mg/kg/injection, schedule: Q01DX005 (ip), vehicle: Klucel (hydroxypropylcellulose) (HPC) 94 % of control | dose: 240.0 mg/kg/injection, schedule: Q01DX005 (ip), vehicle: Klucel (hydroxypropylcellulose) (HPC) 93 % of control

O=C(/C=C/c1c(Cl)cccc1Cl)c1ccc(Cl)cc1
inactive: dose: 100.0 mg/kg/injection, schedule: Q04DX003 (ip), vehicle: saline with Tween-80 100 % of control | dose: 200.0 mg/kg/injection, schedule: Q04DX003 (ip), vehicle: saline with Tween-80 100 % of control | dose: 400.0 mg/kg/injection, schedule: Q04DX003 (ip), vehicle: saline with Tween-80 109 % of control

C/C(=N/NC(=O)c1ccccc1)C(=NO)/C(C)=N\NC(=O)c1ccccc1
inactive: dose: 100.0 mg/kg/injection, schedule: Q01DX001 (ip), vehicle: saline 100 % of control | dose: 200.0 mg/kg/injection, schedule: Q01DX001 (ip), vehicle: saline 97 % of control | dose: 400.0 mg/kg/injection, schedule: Q01DX001 (ip), vehicle: saline 100 % of control

CC(C)N1C(=O)C=C(c2ccc([N+](=O)[O-])cc2)C1=O
inactive: dose: 12.5 mg/kg/injection, schedule: Q01DX009 (ip), vehicle: saline with Tween-80 105 % of control | [1] 105 % of control | [2] 106 % of control

CN(CCc1ccccn1)c1ccc2c(c1)Cc1ccccc1-2
inactive: [4] 98 % of control | [5] 93 % of control

Cc1ccc(C(O)(c2nc3ccccc3s2)c2nc3ccccc3s2)cc1
inactive: [2] 101 % of control | [3] 112 % of control | dose: 200.0 mg/kg/injection, schedule: Q01DX009 (ip), vehicle: saline with Tween-80 113 % of control

C=C/C=C\CN(C)Cc1ccccc1
inactive: dose: 12.5 mg/kg/injection, schedule: Q01DX005 (ip), vehicle: saline 99 % of control | dose: 25.0 mg/kg/injection, schedule: Q01DX005 (ip), vehicle: saline 105 % of control | dose: 50.0 mg/kg/injection, schedule: Q01DX005 (ip), vehicle: saline 106 % of control and 108 % of control | dose: 100.0 mg/kg/injection, schedule: Q01DX005 (ip), vehicle: saline 101 % of control

COc1cccc2c1C(=O)c1c(O)c3c(c(O)c1C2=O)CC(O)(C(C)=O)CC3OC1CC(NC2=CC(=O)CC(C)(C)C2)C(O)C(C)O1 (centres undefined)
inactive: dose: 3.13 mg/kg/injection, schedule: Q04DX003 (ip), vehicle: distilled water + Tween-80 103 % of control | dose: 6.25 mg/kg/injection, schedule: Q04DX003 (ip), vehicle: distilled water + Tween-80 103 % of control | dose: 12.5 mg/kg/injection, schedule: Q04DX003 (ip), vehicle: distilled water + Tween-80 100 % of control | dose: 25.0 mg/kg/injection, schedule: Q04DX003 (ip), vehicle: distilled water + Tween-80 100 % of control | dose: 50.0 mg/kg/injection, schedule: Q04DX003 (ip), vehicle: distilled water + Tween-80 109 % of control

COC(CCl)(CBr)OC
inactive: [1] 95 % of control | [2] 97 % of control | [3] 105 % of control

COc1cccc2c1C(=O)c1c(O)c3c(c(O)c1C2=O)C[C@@](O)(C(C)O)C[C@@H]3OC1CC(NCc2ccccc2)C(O)C(C)O1 (some centres undefined)
active: dose: 0.78 mg/kg/injection, schedule: Q01DX009 (ip), vehicle: water 158 % of control | dose: 1.56 mg/kg/injection, schedule: Q01DX009 (ip), vehicle: water 163 % of control | dose: 3.13 mg/kg/injection, schedule: Q01DX009 (ip), vehicle: water 181 % of control and 194 % of control | dose: 6.25 mg/kg/injection, schedule: Q01DX009 (ip), vehicle: water 215 % of control and 226 % of control

CNCCN=c1ccc2c3c1c(O)c1c(O)ccc(=O)c1c3[nH]n2CCNCCO
active: dose: 1.56 mg/kg/injection, schedule: Q04DX002 (ip), vehicle: water 167 % of control and 186 % of control | dose: 3.12 mg/kg/injection, schedule: Q04DX002 (ip), vehicle: water 177 % of control and 268 % of control | dose: 6.25 mg/kg/injection, schedule: Q04DX002 (ip), vehicle: water 275 % of control and 277 % of control | dose: 12.5 mg/kg/injection, schedule: Q04DX002 (ip), vehicle: water 275 % of control and 277 % of control
inactive: dose: 25.0 mg/kg/injection, schedule: Q04DX002 (ip), vehicle: water 90 % of control

CC(O)C(C)(C)S(=O)(=O)CCCc1ccccc1 (centres undefined)
inactive: [7] 107 % of control | [8] 107 % of control | [9] 108 % of control

c1ccc2c(c1)[nH]c1cc3c(cc12)CCCCC3
inactive: [7] 107 % of control | [8] 91 % of control | [9] 97 % of control

O=c1c2c(oc3cc(OCC4CO4)ccc13)CCC2 (centres undefined)
inactive: [4] 93 % of control | [5] 88 % of control | [6] 95 % of control

CCC(C)C(NC(=O)C(Cc1c[nH]c2ccccc12)NC(=O)OC(C)(C)C)C(=O)OC (centres undefined)
inactive: dose: 12.5 mg/kg/injection, schedule: Q01DX009 (ip), vehicle: other 99 % of control | dose: 25.0 mg/kg/injection, schedule: Q01DX009 (ip), vehicle: other 104 % of control | dose: 50.0 mg/kg/injection, schedule: Q01DX009 (ip), vehicle: other 104 % of control | dose: 100.0 mg/kg/injection, schedule: Q01DX009 (ip), vehicle: other 106 % of control | dose: 200.0 mg/kg/injection, schedule: Q01DX009 (ip), vehicle: other 110 % of control

O=C(C[N+](=O)[O-])c1ccc(Cl)cc1
inactive: [2] 87 % of control | [3] 91 % of control

O=S(=O)(O)C(I)S(=O)(=O)O
inactive: dose: 50.0 mg/kg/injection, schedule: Q01DX009 (ip), vehicle: saline 91 % of control | dose: 100.0 mg/kg/injection, schedule: Q01DX009 (ip), vehicle: saline 94 % of control

CN(C)C1C(O)C2Oc3c(cc(O)c4c3C(=O)c3cc5c(c(O)c3C4=O)C(OCCBr)CC(C)(O)C5)C(C)(O2)C1O (centres undefined)
active: dose: 2.0 mg/kg/injection, schedule: Q01DX009 (ip), vehicle: other 150 % of control | dose: 4.0 mg/kg/injection, schedule: Q01DX009 (ip), vehicle: other 154 % of control | dose: 8.0 mg/kg/injection, schedule: Q01DX009 (ip), vehicle: other 157 % of control | dose: 16.0 mg/kg/injection, schedule: Q01DX009 (ip), vehicle: other 159 % of control

COc1c(C=O)c2c(c(OC)c1OC)-c1ccc(OC)c(=O)cc1[C@@H](NC(C)=O)CC2
inactive: dose: 12.5 mg/kg/injection, schedule: Q01DX009 (ip), vehicle: Klucel (hydroxypropylcellulose) (HPC) 102 % of control
active: dose: 0.39 mg/kg/injection, schedule: Q01DX009 (ip), vehicle: Klucel (hydroxypropylcellulose) (HPC) 151 % of control | dose: 0.78 mg/kg/injection, schedule: Q01DX009 (ip), vehicle: Klucel (hydroxypropylcellulose) (HPC) 154 % of control | dose: 1.56 mg/kg/injection, schedule: Q01DX009 (ip), vehicle: Klucel (hydroxypropylcellulose) (HPC) 160 % of control and 175 % of control | dose: 3.12 mg/kg/injection, schedule: Q01DX009 (ip), vehicle: Klucel (hydroxypropylcellulose) (HPC) 180 % of control and 194 % of control | dose: 6.25 mg/kg/injection, schedule: Q01DX009 (ip), vehicle: Klucel (hydroxypropylcellulose) (HPC) 205 % of control
